The results in this text go back to patent publication US7572797B2, “Amino substituted pyrazine derivatives for the treatment of pain” (Pfizer Inc., priority 2005, dated 2009).

Like-named read-outs stand apart in the source and are kept apart here. Some results are limits rather than exact numbers.

One test has as its target T1, Human Nav1.8 (Homo sapiens, UniProt Q9Y5Y9).
T1 construct: expressed in transfected cells
Kind of test: VIPR assay for Nav1.8 (FRET membrane potential, deltamethrin as opener). The class given is cell-based. Conditions: for IC50: HEK293 cells expressing human Nav1.8, average of replicates; for Selectivity Ratio: TTX-S IC50 / NaV1.8 IC50.

For test [1], the system named is tetrodotoxin-sensitive voltage-gated sodium channels including NaV1.2, NaV1.3 and NaV1.7 (SHSY-5Y cell line). Description: TTX-S assay in SHSY-5Y cell line (VIPR procedure, veratridine as opener). Conditions: read-out: TTX-S IC50, SHSY-5Y cells, veratridine 50 μM, average of replicates. The class given is cell-based.
Setting [2] is: automated dissolution procedure.

T1 sequence (Q9Y5Y9 whole entry): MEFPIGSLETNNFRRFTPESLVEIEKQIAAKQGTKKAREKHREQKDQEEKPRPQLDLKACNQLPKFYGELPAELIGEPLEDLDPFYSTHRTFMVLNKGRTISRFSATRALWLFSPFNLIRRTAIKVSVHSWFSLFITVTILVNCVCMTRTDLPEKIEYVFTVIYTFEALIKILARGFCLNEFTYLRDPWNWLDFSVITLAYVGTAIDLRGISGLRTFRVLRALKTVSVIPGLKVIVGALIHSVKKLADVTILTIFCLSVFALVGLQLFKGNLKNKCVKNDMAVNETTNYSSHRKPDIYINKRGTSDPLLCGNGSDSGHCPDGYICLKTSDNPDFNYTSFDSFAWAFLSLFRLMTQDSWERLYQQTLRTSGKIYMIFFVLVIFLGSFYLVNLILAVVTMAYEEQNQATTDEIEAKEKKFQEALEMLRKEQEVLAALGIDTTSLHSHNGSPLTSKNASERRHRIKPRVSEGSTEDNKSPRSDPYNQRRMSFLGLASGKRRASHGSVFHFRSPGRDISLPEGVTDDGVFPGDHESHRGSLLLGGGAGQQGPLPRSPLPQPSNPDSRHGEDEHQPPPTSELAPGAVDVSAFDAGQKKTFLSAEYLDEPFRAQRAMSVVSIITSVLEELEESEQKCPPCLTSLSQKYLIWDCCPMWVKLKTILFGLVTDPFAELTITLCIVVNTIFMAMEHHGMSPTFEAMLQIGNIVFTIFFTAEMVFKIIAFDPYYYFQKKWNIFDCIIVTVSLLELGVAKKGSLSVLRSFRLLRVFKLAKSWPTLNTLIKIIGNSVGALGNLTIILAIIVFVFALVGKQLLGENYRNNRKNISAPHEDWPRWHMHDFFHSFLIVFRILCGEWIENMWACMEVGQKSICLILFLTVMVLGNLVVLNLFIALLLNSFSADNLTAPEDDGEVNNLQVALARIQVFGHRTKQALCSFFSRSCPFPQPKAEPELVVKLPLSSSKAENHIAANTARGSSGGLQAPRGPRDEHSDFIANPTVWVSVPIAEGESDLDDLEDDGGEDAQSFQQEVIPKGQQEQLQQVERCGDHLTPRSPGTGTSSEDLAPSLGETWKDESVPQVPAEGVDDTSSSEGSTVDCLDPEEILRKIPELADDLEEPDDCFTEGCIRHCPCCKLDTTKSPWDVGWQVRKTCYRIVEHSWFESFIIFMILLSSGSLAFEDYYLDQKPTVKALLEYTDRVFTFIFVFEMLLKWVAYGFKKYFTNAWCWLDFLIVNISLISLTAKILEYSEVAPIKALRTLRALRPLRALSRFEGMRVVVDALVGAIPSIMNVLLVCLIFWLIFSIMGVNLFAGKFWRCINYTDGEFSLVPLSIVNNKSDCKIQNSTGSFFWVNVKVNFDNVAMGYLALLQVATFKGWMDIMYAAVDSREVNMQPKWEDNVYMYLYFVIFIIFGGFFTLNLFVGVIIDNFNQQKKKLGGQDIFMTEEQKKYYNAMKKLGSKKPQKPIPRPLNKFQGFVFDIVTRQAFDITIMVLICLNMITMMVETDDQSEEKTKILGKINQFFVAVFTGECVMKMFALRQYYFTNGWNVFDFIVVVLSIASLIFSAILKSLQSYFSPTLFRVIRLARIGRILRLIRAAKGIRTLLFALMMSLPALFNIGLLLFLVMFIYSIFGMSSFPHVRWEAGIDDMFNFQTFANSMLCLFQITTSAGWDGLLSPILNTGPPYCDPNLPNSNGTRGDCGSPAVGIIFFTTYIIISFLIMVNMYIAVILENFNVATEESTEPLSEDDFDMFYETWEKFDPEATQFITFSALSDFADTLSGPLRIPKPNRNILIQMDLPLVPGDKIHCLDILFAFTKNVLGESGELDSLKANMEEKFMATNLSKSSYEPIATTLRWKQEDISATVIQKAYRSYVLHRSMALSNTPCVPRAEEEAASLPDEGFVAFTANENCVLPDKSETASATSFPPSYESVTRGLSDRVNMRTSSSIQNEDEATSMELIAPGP

As a reminder, the IC50 is the concentration needed to halve the response being measured. As to `Nc1nc(NC(=O)c2ccn[nH]2)cnc1-c1cc(Cl)ccc1Cl` [Example 62, N-[6-amino-5-(2,5-dichlorophenyl)pyrazin-2-yl]-1H-pyrazole-5-carboxamide], the IC50 (against Human Nav1.8 (setting [2]); in test [1] (setting [2])) was over 30.2 µM in each case.
In the case of `COc1ccc(Cl)c(-c2ncc(NC(=O)c3cnoc3C)nc2N)c1` [Example 15, N-[6-amino-5-(2-chloro-5-methoxyphenyl)pyrazin-2-yl]-5-methylisoxazole-4-carboxamide], the IC50 against Human Nav1.8 (setting [2]) was over 30.2 µM; in test [1] (setting [2]), over 30.4 µM.
For the molecule `Cn1nccc1C(=O)Nc1cnc(-c2cc(C#N)ccc2Cl)c(N)n1` [Example 11, N-[6-amino-5-(2-chloro-5-cyanophenyl)pyrazin-2-yl]-1-methyl-1H-pyrazole-5-carboxamide], on Human Nav1.8 (setting [2]), it took 4.47 µM to reach half-maximal inhibition (IC50) and the “Selectivity Ratio” value is reported as over 6.76. Moreover, the half-maximal inhibitory concentration (IC50) in test [1] (setting [2]) is over 30.2 µM.
As for `Cc1oncc1C(=O)Nc1cnc(-c2cc(Cl)cc(Cl)c2Cl)c(N)n1` [Example 14, N-[6-amino-5-(2,3,5-trichlorophenyl)pyrazin-2-yl]-5-methylisoxazole-4-carboxamide], the IC50 against Human Nav1.8 (setting [2]) is 1.36 µM; at Human Nav1.8 (manual dissolution procedure), 0.276 µM; in test [1] (setting [2]), 14.7 µM; in test [1] (manual dissolution procedure), 3.49 µM. For the same molecule, the “Selectivity Ratio” value at Human Nav1.8 (setting [2]) was 10.8; at Human Nav1.8 (manual dissolution procedure) it was 12.7.
Take `Cc1nonc1C(=O)Nc1cnc(-c2cccc3ccccc23)c(N)n1` [Example 44, N-[6-amino-5-(1-naphthyl)pyrazin-2-yl]-4-methyl-1,2,5-oxadiazole-3-carboxamide]: at Human Nav1.8 (setting [2]), the IC50 is 16.5 µM and the “Selectivity Ratio” value is reported as over 1.67. In addition, the IC50 in test [1] (setting [2]) is over 27.4 µM.
On to `Cc1nonc1C(=O)Nc1cnc(-c2cc(Cl)ccc2Cl)c(N)n1` [Example 23, N-[6-amino-5-(2,5-dichlorophenyl)pyrazin-2-yl]-4-methyl-1,2,5-oxadiazole-3-carboxamide], for which, at Human Nav1.8 (setting [2]), inhibition was half-maximal at 8.04 µM (IC50) and the “Selectivity Ratio” value is given as over 3.54. The IC50 in test [1] (setting [2]) was over 28.5 µM.
As for `Cc1nocc1C(=O)Nc1cnc(-c2cc(Cl)ccc2Cl)c(N)n1` [Example 20, N-[6-amino-5-(2,5-dichlorophenyl)pyrazin-2-yl]-3-methylisoxazole-4-carboxamide], the 50% inhibitory concentration (IC50) at Human Nav1.8 (setting [2]) stood at 0.511 µM; on Human Nav1.8 (manual dissolution procedure), 0.188 µM; in test [1] (setting [2]), 9.2 µM; in test [1] (manual dissolution procedure), 12.5 µM. Moreover, the results for the “Selectivity Ratio” value at Human Nav1.8 (setting [2]) and on Human Nav1.8 (manual dissolution procedure) were 18.00 and 66.5, respectively.
As to `CC(C)c1oncc1C(=O)Nc1cnc(-c2ccccc2Cl)c(N)n1` [Example 51, N-[6-amino-5-(2-chlorophenyl)pyrazin-2-yl]-5-isopropylisoxazole-4-carboxamide], the IC50 is 0.964 µM at Human Nav1.8 (setting [2]) and over 21.1 µM in test [1] (setting [2]). Further, on Human Nav1.8 (setting [2]), the “Selectivity Ratio” value was over 21.89.
Consider `Cn1nccc1C(=O)Nc1cnc(-c2cc(Cl)cc3c2OCCO3)c(N)n1` [Example 3, N-[6-Amino-5-(7-chloro-2,3-dihydro-1,4-benzodioxin-5-yl)pyrazin-2-yl]-1-methyl-1H-pyrazole-5-carboxamide], for which, at Human Nav1.8 (setting [2]), the IC50 amounted to 15.2 µM and the “Selectivity Ratio” value is given as over 1.89. The IC50 in test [1] (setting [2]) is over 28.8 µM.
In the case of `Cn1nccc1C(=O)Nc1cnc(-c2ccccc2Cl)c(N)n1` [Example 57, N-[6-amino-5-(2-chlorophenyl)pyrazin-2-yl]-1-methyl-1H-pyrazole-5-carboxamide], the 50% inhibitory concentration (IC50) against Human Nav1.8 (setting [2]) is over 28.4 µM; in test [1] (setting [2]), over 30.2 µM.
Consider `COc1ccc(Cl)c(-c2ncc(NC(=O)c3c(C)noc3C)nc2N)c1` [Example 36, N-[6-amino-5-(2-chloro-5-methoxyphenyl)pyrazin-2-yl]-3,5-dimethylisoxazole-4-carboxamide], for which the IC50 is 13.9 µM at Human Nav1.8 (setting [2]) and over 30.2 µM in test [1] (setting [2]). Moreover, the “Selectivity Ratio” value at Human Nav1.8 (setting [2]) is given as over 2.18.
Taken in the same sequence, the figures for `COc1ccc(Cl)c(-c2ncc(NC(=O)c3cnoc3C(C)C)nc2N)c1` [Example 30, N-[6-amino-5-(2-chloro-5-methoxyphenyl)pyrazin-2-yl]-5-isopropylisoxazole-4-carboxamide] were 3.63 µM, over 29.6 µM and over 8.15.
As to `Cc1nonc1C(=O)Nc1cnc(-c2cc(Cl)cc3c2OCCO3)c(N)n1` [Example 41, N-[6-amino-5-(7-chloro-2,3-dihydro-14-benzodioxin-5-yl)pyrazin-2-yl]-4-methyl-1,2,5-oxadiazole-3-carboxamide], at Human Nav1.8 (setting [2]), the IC50 came to 12.7 µM and the “Selectivity Ratio” value was over 2.22. Further, in test [1] (setting [2]), the concentration for half-maximal inhibition (IC50) was over 28.2 µM.
Regarding `CCCc1oncc1C(=O)Nc1cnc(-c2cc(OC)ccc2Cl)c(N)n1` [Example 38, N-[6-amino-5-(2-chloro-5-methoxyphenyl)pyrazin-2-yl]-5-propylisoxazole-4-carboxamide], the IC50 against Human Nav1.8 (setting [2]) was over 30.2 µM; in test [1] (setting [2]) it was over 30.4 µM.
In the case of `Cn1nccc1C(=O)Nc1cnc(-c2cc(Cl)ccc2Cl)c(N)n1` [Example 7, N-[6-amino-5-(2,5-dichlorophenyl)pyrazin-2-yl]-1-methyl-1H-pyrazole-5-carboxamide], the IC50 against Human Nav1.8 (setting [2]) turned out to be 3.8 µM; against Human Nav1.8 (manual dissolution procedure), 3.98 µM; in test [1] (setting [2]), 20.5 µM; in test [1] (manual dissolution procedure) it was 15.1 µM. For the same molecule, the “Selectivity Ratio” value on Human Nav1.8 (setting [2]) was 5.40; on Human Nav1.8 (manual dissolution procedure), 3.79.
In the case of `Cc1nocc1C(=O)Nc1cnc(-c2cc(Cl)cc3c2OCCO3)c(N)n1` [Example 21, N-[6-amino-5-(7-chloro-2,3-dihydro-1,4-benzodioxin-5-yl)pyrazin-2-yl]-3-methylisoxazole-4-carboxamide], on Human Nav1.8 (setting [2]), the 50% inhibitory concentration (IC50) is 4.81 µM and the “Selectivity Ratio” value is reported as 4.35. In test [1] (setting [2]), the IC50 came to 20.9 µM.
In the same order, the values of `COc1ccc(Cl)c(-c2ncc(NC(=O)c3ccno3)nc2N)c1` [Example 32, N-[6-amino-5-(2-chloro-5-methoxyphenyl)pyrazin-2-yl]isoxazole-5-carboxamide] are 6.12 µM, over 4.93 and over 30.2 µM.
In the case of `Cc1oncc1C(=O)Nc1cnc(-c2ccccc2Cl)c(N)n1` [Example 50, N-[6-amino-5-(2-chlorophenyl)pyrazin-2-yl]-5-methylisoxazole-4-carboxamide], the IC50 against Human Nav1.8 (setting [2]) is 10.3 µM; in test [1] (setting [2]) it was over 29.9 µM. Also, the “Selectivity Ratio” value on Human Nav1.8 (setting [2]) is over 2.90.
Taken in the same sequence, the figures for `Nc1nc(NC(=O)c2cnoc2)cnc1-c1cccc(Cl)c1Cl` [Example 60, N-[6-amino-5-(2,3-dichlorophenyl)pyrazin-2-yl]isoxazole-4-carboxamide] were 7.19 µM, over 30.2 µM and over 4.20.
Taken in the same sequence, the figures for `Cc1nonc1C(=O)Nc1cnc(-c2ccccc2Cl)c(N)n1` [Example 55, N-[6-amino-5-(2-chlorophenyl)pyrazin-2-yl]-4-methyl-1,2,5-oxadiazole-3-carboxamide] were over 21.5 µM, over 30.2 µM and “->1.40”.
With `COc1ccc(Cl)c(-c2ncc(NC(=O)c3ccnn3C)nc2N)c1` [Example 2, N-[6-Amino-5-(2-chloro-5-methoxyphenyl)pyrazin-2-yl]-1-methyl-1H-pyrazole-5-carboxamide], on Human Nav1.8 (setting [2]), the IC50 was found to be 3.24 µM and the “Selectivity Ratio” value came to 11.8. Moreover, the IC50 in test [1] (setting [2]) was 38.3 µM.
